In series [1] the test system is primary inflammation. As to conditions: Silvest et al., Arzneim-Forsch, 16, 59 (1966); cited from earlier work.
Series [2] relates to carrageenin edema in rat's paw. Briefly: Carrageenin Edema Test in Rat's Paw (anti-inflammatory activity). In kind it is in vivo, Female Wistar rats. As to conditions: for inhibition in vivo at 100 mg/kg: Rattus norvegicus, hydrochloric acid salts. The method, then: A standard method of Carrageenin Edema Test in Rat's Paw described in C. A. Winter et al., Proc. Soc. Exp. Biol. Med., 111, 544 (1962) was employed.
[…] One hour later, the pad of a hind paw of the rat was injected with 0.1 ml of 1% aqueous carrageenin solution. The volume of the paw was measured both before the injection of carrageenin and three hours after the injection.
The edema inhibition percentage of the test compound was calculated from the ratio of the increase in the volume of the affected paw of the test animals to the increase in the volume of the affected paw of the controls.
The anti-inflammatory activity of the 3-aminoindazole derivative hydrochloric acid salts of this invention was measured.
The anti-inflammatory activity of the 3-aminoindazole derivative hydrochloric acid salts obtained by Examples 1-49 of this invention was measured by the standard method of carrageenin edema test. In these tests, the amount of the administration of the salts was 100 mg/kg. The results are shown in Table 17 (Inhibition (%) was measured three hours after the injection).
A general note: In the carrageenan paw model, swelling and tenderness develop within hours.

For series [3], the system named is gastric ulcer in rats. Briefly: Anti-Ulcer Test: occurrence of gastric ulcer by test compound alone. Type of series: in vivo, Male donryu rats. The method, then:
Ulcer inhibition of 3-(3-diethylaminopropylamino)indazole (10) and 1-(3-piperidinopropyl)-3-aminoindazole (18), typical and preferred compounds of this invention, was measured.

Series [4] has as its system carrageenin-inflamed hind paw of the rat (pressure pain). The experiment in a line: Randall-Selitto Test (analgesic activity). Type of series: in vivo, Female wister rats. As to conditions: 100 mg/kg, hydrochloric acid salts; water 0.8. On the procedure: The Randall-Selitto analgesic activity test was carried out according to the general method described in J. O. Randall & J. J. Selitto, Arch. Int. Pharmacodyn, 111, 409 (1957). Female wister rats weighing 120-150 g were orally administered 50 mg/kg of the test compound as an aqueous solution. Thirty minutes later, the pad of a hind paw of the rat was injected with 0.1 ml of 1% aqueous carrageenin solution. Pressure was applied to the paw where edema was formed by Balance-type Pressure Device (Ugo Basile Company; Italy) 1, 2, 3 and 4 hours after the injection. The weight when the test animals began to struggle with pain was measured. The analgesic activity is represented by an analgesic coefficient which is obtained by dividing the average weight measured 1.5, 2.5, 3.5 and 4.5 hours after the administration by the applied weight prior to the administration.
The analgesic activity of the 3-aminoindazole derivative hydrochloric acid salts obtained by Examples 2, 6, 10, 18, 22 and 28 of this invention was measured by the standard method of Randall-Selitto test. In these tests, the amount of the administration of the salts was 100 mg/kg.

The nature of series [5]: Acute toxicity (LD50), intravenous injection. As to conditions: mouse, in vivo, male ddY-strain mice, read-out: LD50, Table 19. The method, then: Acute toxicity was measured by an ordinary method described in Finney DJ Probit Analysis Cambridge University Press 48, (1952). Ddy mice weighing about 18 g on average, each group consisting of 10 animals, were […] injected with the physiological salt solution containing the test compound. The amount of the test compound administered was varied in 5-8 groups. Three days after the administration, dead animals were counted in each group. The amount of the test compound killing half the number of the animals (LD50) was calculated from the results.
The acute toxicity of the 3-aminoindazole derivatives and their hydrochloric acid salts obtained by Examples 1-49 of this invention was measured by giving male ddY-strain mice an intravenous injection.

The test system of series [6] is acetic acid-induced writhing in mice. Briefly: Acetic Acid-Writhing Test (analgesic activity). Type of series: in vivo, Male ddy-strain mice. As to conditions: 100 mg/kg, oral, hydrochloric acid salts. The method, then:
Acetic acid-writhing test was carried out according to Koster et al., Fed. Proc., 18, 412 (1959). […] Thirty minutes later, the mice were intraperitoneally injected with 0.1 ml/10 g of 0.7% acetic acid physiological salt solution as a stimulant. Ten minutes after the stimulant injection, writhing frequency as pain response was observed and recorded over 10 minutes.
The inhibition percentage of the test compound was represented as the ratio of the inhibition of the writhing frequency.
Analgesic activity of 3-aminoindazole derivative hydrochloric acid salts was measured by acetic acid-writhing test.
A general note: In writhing tests, fewer writhes than in controls are read as antinociception.

Series [7] has as its system gastric ulcer caused by indomethacin. As to conditions: 100 mg/kg compound together with 10 mg/kg of indomethacin. On the procedure: The test compound was suspended in 1% HCO-60 (trade name for polyoxyethylene hydrogenated castor oil; a product of Nikko Chemical Co., Ltd., Japan) at the concentration of 10 mg/ml. Male donryu rats weighing 150-160 g were orally administered 100 mg/kg of the test compound. The occurrence of gastric ulcer was examined 24 hours after the administration.
It is well known that the single use of acidic non-steroidal anti-inflammatory drugs causes a side effect in digestive tracts such as gastric ulcer.

The structures appear in SMILES notation. Read-outs that look alike come from different tables or passages of the source.

As a reminder, the LD50 is the dose at which mortality reaches 50%.

In the case of `CN(C)CCCOc1nn(Cc2ccccc2)c2ccccc12` [Compound C-4, 1-benzyl-3-(3-dimethylaminopropoxy)indazole, reference compound], in series [1], the “Effect against primary inflammation” value was “effective against primary inflammation”. Moreover, the “Inhibition (carrageenin edema), Table 2” value was 8% in series [2] (25 mg/kg, oral); 20% in series [2] (50 mg/kg, oral); 51% in series [2] (100 mg/kg, oral).
For `Nc1nn(CCCN2CCCCC2)c2ccccc12` [Compound (18), 1-(3-piperidinopropyl)-3-aminoindazole], the Gastric ulcer occurrence result was “Gastric ulcer did not occur” in series [3] (100 mg/kg singly administered at one time, oral) and “gastric ulcer did not occur” in series [3] (administered for 5 days). The “Analgesic Coefficient, Table 18” value in series [4] worked out at 1.38. In addition, the LD50 at 72 h in series [5] came to 102 mg/kg. Moreover, the “Inhibition (acetic acid-writhing), Table 3” value in series [6] was 43%. In series [7], the “Occurrence frequency in combination” value is listed as “not changed”. The “Ulcer index in combination” value in series [7] is reported as 2.5 mm. In addition, the inhibition in vivo at 100 mg/kg came out at 54% in series [2] (po, 3 h, 100 mg/kg, measured three hours after the injection, read-out: Inhibition (carrageenin edema), Table 17) and 54% in series [2] (100 mg/kg, oral, 3 h after carrageenin, read-out: Inhibition (carrageenin edema), Table 1). Also, in series [2] (Table 1, 100 mg/kg), the “Inhibition values compared with comparative compounds” value was “higher than those of the compounds C-2 and C-3”.

Source of the values: US4549023A, “3-Aminoindazole derivatives” (priority 1980, dated 1985).
